# Results from patent US20180344756A1, “METHODS FOR THE TREATMENT AND PREVENTION OF RENAL DISORDERS AND FATTY LIVER DISORDERS” (Janssen Pharmaceutica NV, priority 2014, published 2018).
# Experiments:
# [1] = Albumin/creatinine ratio in the CANVAS clinical trial, subjects with micro- or macroalbuminuria; format: in vivo, human; conditions: for median percent change from baseline in ACR at Week 52: subjects with macroalbuminuria, Week 52, 82% of subjects on ACEIs or ARBs at baseline, placebo −3.6%
# Description: (§1) The albumin/creatinine ratio was measured at baseline, over 12 weeks, over 52 weeks, and over 104 weeks, in subjects participating in the CANagliflozin cardioVascular Assessment Study (CANVAS), the DIA3004 clinical trial, and the DIA3009 clinical trial, respectively. (Complete protocol details for the CANVAS, DIA3004 and DIA3009 clinical trials are available on www.clinicaltrials.gov).
# In subjects with macroalbuminuria in CANVAS, the median percent change from baseline in ACR at Week 52 was −3.6% in the placebo group, −58.6% in the canagliflozin 100 mg group, and −53.3% in the canagliflozin 300 mg group.
# [2] = eGFR change from baseline over time in the CANVAS, DIA3004 and DIA3009 clinical trials; format: in vivo, human; conditions: maximal at first post baseline visit, stable or attenuated with continued treatment; CANVAS and DIA3004 52 weeks, DIA3009 104 weeks; FIG. 3-5
# From the text: The time course of eGFR changes over 52 weeks in the CANVAS clinical trial is shown in FIG. 3; over a 52-week study in subjects with moderate renal impairment (in the DIA3004 clinical trial) are shown in FIG. 4; and over a 104-week period in an active comparator study (DIA3009, add-on to metformin) are shown in FIG. 5.
# [3] = Albuminuria in the DIA3004 clinical trial, subjects with moderate renal impairment; format: in vivo, human; conditions: 52-week study, placebo 19.7%
# Description: as §1
# [4] = metformin on its own, in the diabetic; cited from earlier work
SMILES,median percent change from baseline in ACR at Week 52 ([1]; canagliflozin 100 mg) [%],median percent change from baseline in ACR at Week 52 ([1]; canagliflozin 300 mg) [%],"albuminuria after 52 weeks of treatment (in words) ([1]; subjects with micro- and macroalbuminuria at baseline, FIG. 1 and FIG. 2)",effect on eGFR (in words) [2],"median percent reductions in albuminuria ([3]; baseline eGFR 30 to <50 ml/min/1.73 m^2, canagliflozin 100 mg) [%]","median percent reductions in albuminuria ([3]; baseline eGFR 30 to <50 ml/min/1.73 m^2, canagliflozin 300 mg) [%]",average improvement in the HbA1c value [4]
Cc1ccc([C@@H]2O[C@H](CO)[C@@H](O)[C@H](O)[C@H]2O)cc1Cc1ccc(-c2ccc(F)cc2)s1 [canagliflozin],−58.6,−53.3,reductions in albuminuria,"dose-dependent, reversible reduction in eGFR",−16.4,−28.0,–
CN(C)C(=N)N=C(N)N [metformin],–,–,–,–,–,–,1.0-1.5%
